From PubChem BioAssay AID2060902 (Molecular Pharmacology Branch, DTP, NCI, 2025)
“And” between values parts separate entries of the source, which are not always exact repeats. Identical values can stand only once.

System: 485368-065-R3-J5-PDC spheroids with HUVEC/MSC, viability
Experiment: Anticancer human tumor 485368-065-R3-J5-PDC patient-derived pancreatic carcinoma cell line growth inhibition [RAS]
Details: for viability, T/C: stronger effect = lower value; active means viability on the fitted dose curve at most 10% of control; inactive means the rest
Source text: RAS pathway inhibitors in Combinations in Complex Spheroids
A high-throughput screen of multi-cell type tumor spheroids was designed to identify active combinations of RAS pathway inhibitors and targeted small molecules. Complex spheroids include a stromal component modeled by human endothelial cells (HUVEC) and fibroblasts modeled by human mesenchymal stem cells (MSCs). The concentration ranges selected for each drug and investigational agent were based upon clinically achievable concentrations if the clinical Cmax of the agent was known.
Compounds. The drugs and investigational agents: abemaciclib (NSC768073), cobimetinib (NSC768068), divarasib (GDC6063, NSC841802), docetaxel (NSC628503), GDC-1971 (RLY-1971, NSC841576), gemcitabine (NSC613327), inavolisib (NSC800729), ipatasertib (NSC767898), KB-0742 (NSC834161), MRTX-1133 (NSC836407), osimertinib (NSC779217), RMC-4630 (NSC839698), RMC-6236 (NSC851965), RMC-6291 (NSC852671), Ro-3306 (NSC812927), sapanisertib (NSC764658), SN-38 (NSC673596), staurosporine (NSC755774), SY5609 (NSC837396), and tovorafenib (DAY101, NSC766906), were obtained from the National Cancer Institute (NCI) Developmental Therapeutics Program Chemical Repository. The FDA-approved anticancer drug set is available from the NCI Developmental Therapeutics Program. […] The stock solutions were prepared in dimethyl sulfoxide (DMSO, Sigma-Aldrich, St. Louis, MO, cat. D2650) at 800-fold the tested concentration and stored at -70 degrees C prior to their use. All drugs and investigational agents were tested over a range starting from a high concentration at or near the clinical Cmax and decreasing in half-log increments. If the clinical Cmax for an agent had not been determined, the highest concentration tested was 10 microM.
Cell Culture. All cells were maintained in an incubator at 37 degrees C and 5% CO2 with 95% humidity. The PDC lines were cultured according to standard operating procedures established by the NCI PDMR. All PDCs were thawed and cultured in Matrigel-coated flasks prepared with a working solution of 1X Ham's F-12 nutrient mix, without supplementation (Invitrogen, Waltham, MA, cat. 11765054), 100 U/mL penicillin-streptomycin (Invitrogen, cat. 15140122), and 2.5% Matrigel (Corning Inc., Corning, NY, cat. 354248) for the first three passages. The 362531-283-R-J2-PDC and 782815-120-R-J1-PDC lines were cultured in 6C/Colon 1B media, which includes advanced DMEM/F-12 (Thermo Fisher Scientific, cat. 12634028), 10 mM HEPES (Thermo Fisher Scientific, cat. 15630080), 1X GlutaMAX supplement (Thermo Fisher Scientific, cat. 35050061), 0.1 mg/mL primocin (InvivoGen, San Diego, CA, cat. ant-pm-2), 10% defined fetal bovine serum, heat inactivated (HyClone Laboratories Inc., Logan, UT, cat. SH30070.03HI), 50% L-WRN conditioned media (ATCC, cat. CRL-3276), 1.25 mM N-Acetyl-L-cysteine (Sigma-Aldrich, cat. A9165), 10 mM nicotinamide (Sigma-Aldrich, cat. N0636), 1X B-27 supplement (Thermo Fisher Scientific, cat. 17504044), 1X N-2 supplement (Thermo Fisher Scientific, cat. 17502048), 50 ng/mL human EGF (Thermo Fisher Scientific, cat. PHG0311), and 10 microM Y-27632 dihydrochloride (Tocris Bioscience, cat. 1254). The K12877-001-R-J1-PDC line was cultured in 6I media, which includes all 6C/Colon 1B media plus 10 ng/mL human FGF-10 (PeproTech, cat. 100-26), 1 ng/mL human FGF-2 (PeproTech, cat. 100-18B), 1 µM prostaglandin E2 (Tocris Bioscience, cat. 2296), […] hydrocortisone (Sigma-Aldrich, cat. H4001), and […] bovine insulin (Sigma-Aldrich, cat. I6634). The K86415-001-R-J1-PDC line was cultured in 6D media, which includes all 6C/Colon 1B media components minus the L-WRN conditioned media. The 485176-168-R4-J1-PDC was cultured in PANC media, which includes all 6C/Colon 1B media plus 100 ng/mL human FGF-10 (PeproTech, cat. 100-26), 500 nM SB-431542 (Selleckchem, cat. S1067), and 10 nM gastrin (Tocris Bioscience, cat. 3006). […]

[1] = curve of first compound, second compound 0.0316 µM
[2] = curve of first compound, second compound 0.1 µM
[3] = curve of first compound, second compound 0.316 µM
[4] = curve of first compound, second compound 1 µM
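Further: spheroids exposed to agents for seven days before readout.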

CCc1c2c(nc3ccc(O)cc13)-c1cc3c(c(=O)n1C2)COC(=O)[C@]3(O)CC + C=CC(=O)N1CCN(c2nc(OCC3CCCN3C)nc3c(F)c(-c4nc(N)cc(C)c4C(F)(F)F)c(Cl)cc23)C(C)C1
1.96 nM: IC50 (curve of first compound, second compound 0.00316 µM)
2.06 nM: IC50 [2]
active: viability, T/C (second compound 0.00316 µM, first compound 0.03 µM) 6.75% | viability, T/C (second compound 0.00316 µM, first compound 0.0949 µM) 4.49% | viability, T/C (second compound 0.00316 µM, first compound 0.3 µM) 3.28% | viability, T/C (second compound 0.01 µM, first compound 0.03 µM) 7.17% | viability, T/C (second compound 0.01 µM, first compound 0.0949 µM) 3.98% | viability, T/C (second compound 0.01 µM, first compound 0.3 µM) 3.67% | viability, T/C (second compound 0.0316 µM, first compound 0.03 µM) 6.26% | viability, T/C (second compound 0.0316 µM, first compound 0.0949 µM) 4.82% | viability, T/C (second compound 0.0316 µM, first compound 0.3 µM) 3.26% | viability, T/C (second compound 0.1 µM, first compound 0.03 µM) 6.25% | viability, T/C (second compound 0.1 µM, first compound 0.0949 µM) 4.43% | viability, T/C (second compound 0.1 µM, first compound 0.3 µM) 3.35% | viability, T/C (second compound 0.316 µM, first compound 0.03 µM) 5.63% | viability, T/C (second compound 0.316 µM, first compound 0.0949 µM) 4.4% | viability, T/C (second compound 0.316 µM, first compound 0.3 µM) 3.28% | viability, T/C (second compound 1 µM, first compound 0.03 µM) 5.78% | viability, T/C (second compound 1 µM, first compound 0.0949 µM) 5.14% | viability, T/C (second compound 1 µM, first compound 0.3 µM) 3.4%
1.76 nM: IC50 [4]
2.09 nM: IC50 (curve of first compound, second compound 0.01 µM)
2.15 nM: IC50 [1]
2.08 nM: IC50 [3]
inactive: viability, T/C (second compound 0.00316 µM, first compound 0.000949 µM) 87.9% | viability, T/C (second compound 0.00316 µM, first compound 0.003 µM) 25.8% | viability, T/C (second compound 0.00316 µM, first compound 0.00949 µM) 15.8% | viability, T/C (second compound 0.01 µM, first compound 0.000949 µM) 90.6% | viability, T/C (second compound 0.01 µM, first compound 0.003 µM) 28.9% | viability, T/C (second compound 0.01 µM, first compound 0.00949 µM) 17.6% | viability, T/C (second compound 0.0316 µM, first compound 0.000949 µM) 89.7% | viability, T/C (second compound 0.0316 µM, first compound 0.003 µM) 33.6% | viability, T/C (second compound 0.0316 µM, first compound 0.00949 µM) 13% | viability, T/C (second compound 0.1 µM, first compound 0.000949 µM) 85.4% | viability, T/C (second compound 0.1 µM, first compound 0.003 µM) 32.5% | viability, T/C (second compound 0.1 µM, first compound 0.00949 µM) 12.2% | viability, T/C (second compound 0.316 µM, first compound 0.000949 µM) 81.7% | viability, T/C (second compound 0.316 µM, first compound 0.003 µM) 34.7% | viability, T/C (second compound 0.316 µM, first compound 0.00949 µM) 15.1% | viability, T/C (second compound 1 µM, first compound 0.000949 µM) 74.6% | viability, T/C (second compound 1 µM, first compound 0.003 µM) 26.8% | viability, T/C (second compound 1 µM, first compound 0.00949 µM) 16.5%

CCC(CC)c1cc(NC2CCC(N)C2)n2nccc2n1 (stereo unspecified) + C#Cc1c(F)ccc2cc(O)cc(-c3ncc4c(N5CC6CCC(C5)N6)nc(OCC56CCCN5CC(F)C6)nc4c3F)c12
1250 nM: IC50 (curve of first compound, second compound 10 µM)
2030 nM: IC50 [1]
active: viability, T/C (second compound 0.0316 µM, first compound 3.16 µM) 4.74% | viability, T/C (second compound 0.0316 µM, first compound 10 µM) 7.01% | viability, T/C (second compound 0.1 µM, first compound 3.16 µM) 4.21% | viability, T/C (second compound 0.1 µM, first compound 10 µM) 7.06% | viability, T/C (second compound 0.316 µM, first compound 3.16 µM) 5.79% | viability, T/C (second compound 0.316 µM, first compound 10 µM) 7.25% | viability, T/C (second compound 1 µM, first compound 3.16 µM) 4.74% | viability, T/C (second compound 1 µM, first compound 10 µM) 6.22% | viability, T/C (second compound 3.16 µM, first compound 3.16 µM) 4.66% | viability, T/C (second compound 3.16 µM, first compound 10 µM) 6.53% | viability, T/C (second compound 10 µM, first compound 3.16 µM) 3.14% | viability, T/C (second compound 10 µM, first compound 10 µM) 6.12%
1980 nM: IC50 [4]
2010 nM: IC50 [3]
1830 nM: IC50 (curve of first compound, second compound 3.16 µM)
1940 nM: IC50 [2]
inactive: viability, T/C (second compound 0.0316 µM, first compound 0.0316 µM) 108% | viability, T/C (second compound 0.0316 µM, first compound 0.1 µM) 116% | viability, T/C (second compound 0.0316 µM, first compound 0.316 µM) 110% | viability, T/C (second compound 0.0316 µM, first compound 1 µM) 147% | viability, T/C (second compound 0.1 µM, first compound 0.0316 µM) 107% | viability, T/C (second compound 0.1 µM, first compound 0.1 µM) 95.8% | viability, T/C (second compound 0.1 µM, first compound 0.316 µM) 109% | viability, T/C (second compound 0.1 µM, first compound 1 µM) 129% | viability, T/C (second compound 0.316 µM, first compound 0.0316 µM) 99.4% | viability, T/C (second compound 0.316 µM, first compound 0.1 µM) 105% | viability, T/C (second compound 0.316 µM, first compound 0.316 µM) 114% | viability, T/C (second compound 0.316 µM, first compound 1 µM) 152% | viability, T/C (second compound 1 µM, first compound 0.0316 µM) 91.1% | viability, T/C (second compound 1 µM, first compound 0.1 µM) 109% | viability, T/C (second compound 1 µM, first compound 0.316 µM) 121% | viability, T/C (second compound 1 µM, first compound 1 µM) 138% | viability, T/C (second compound 3.16 µM, first compound 0.0316 µM) 86.7% | viability, T/C (second compound 3.16 µM, first compound 0.1 µM) 83.8% | viability, T/C (second compound 3.16 µM, first compound 0.316 µM) 96.9% | viability, T/C (second compound 3.16 µM, first compound 1 µM) 128% | viability, T/C (second compound 10 µM, first compound 0.0316 µM) 47.2% | viability, T/C (second compound 10 µM, first compound 0.1 µM) 42.1% | viability, T/C (second compound 10 µM, first compound 0.316 µM) 61.7% | viability, T/C (second compound 10 µM, first compound 1 µM) 93.3%

Nc1ccn(C2OC(CO)C(O)C2(F)F)c(=O)n1 (stereo unspecified)
inactive: viability, T/C (compound 0.00316 µM) 100% [middle of 4 runs] | viability, T/C (compound 0.01 µM) 29.2% [middle of 4 runs] | viability, T/C (compound 0.0316 µM) 10.9% [middle of 4 runs] | viability, T/C (compound 0.1 µM) 10.5% [middle of 4 runs] | viability, T/C (compound 0.316 µM) 12.1% [middle of 4 runs] | viability, T/C (compound 1 µM) 11.3% [middle of 4 runs]
7.13 nM and 6.64 nM and 6.75 nM: IC50 (curve of compound)
